# Measured values: PMC10254233, “Synthesis and In Vitro Biological Evaluation of p-Carborane-Based Di-tert-butylphenol Analogs” (Molecules, 2023)
# Legend:
# HCT116 cells [1] = assay: Co-treatment with autophagy inhibitors, CV assay; type: cell-based, human; conditions: HCT116, 50 µM with 20 µM chloroquine or 1 mM 3-MA, 72 h
# Excerpt: This means that the cytotoxic activity of the tested drug is enhanced by the inhibition of autophagy.
# (G) HCT116 cells were co-treated with R-830-Cb and 3-methyladenine (3-MA) or chloroquine and viability was estimated by crystal violet (CV) assay. * p < 0.05; *** p < 0.001 in comparison to relevant control.
# 1.1.3. Measurement of reactive oxygen and nitrogen species (ROS/RNS) generation Dihydrorhodamine 123 (DHR) staining was used for detection of production of ROS/RNS species.
# (§1) Finally, after 72 h incubation, cells were washed, tryp-sinized, and analyzed using flow cytometry (CyFlow® Space Partec using the PartecFloMax® software […]
# 1.1.4. PI staining on chamber slides […]
# (§2) (30 µM) and R-830-Cb (50 µM)). […] Finally, for covering the slides fluorescent mounting medium was used and slides were ana-lyzed with Zeiss AxioObserver Z1 inverted fluorescence microscope (Carl Zeiss AG, Oberkochen, Ger-many) at 400 x magnification.
# (§3) 1.1.5. Evaluation of the role of detected autophagy
# (§4) Concomitant treatment of R-830-Cb and autophagy inhibitors chloroquine and 3-MA was performed to determine the nature of detected autophagy. […] Cell viability was evaluated using CV assay after 72 h. […]
# Finally, after 72 h incubation, cells were tripsynized, washed, resuspended in PBS, and analyzed by flow cytometry (CyFlow® Space Partec using the PartecFloMax® software (Munster, Germany)).
# HCT116 cells [2] = assay: ROS/RNS generation, DHR 123 staining; type: cell-based, human; conditions: HCT116, IC50 dose, 72 h
# Excerpt: Apostat staining confirmed that apoptosis was in correlation with the activation of caspases (Figure 3C). […] The […] production of reactive oxygen species explains the observed effects of the applied treatments, namely inhibition of proliferation and induction of apoptosis (Figure 3E). It is widely accepted that drug-mediated hyperproduction of reactive oxygen species that are not buffered by cellular anti-oxidative protection is responsible for cell death induction. […] The described feature is acquired during disease progression, and it is tightly connected with abnormal blood supply and a hypoxic microenvironment. Therefore, elimination of these molecules results in a rapid decrease in cell viability. […]
# as §1, §2, §3, §4
substance,measurement,setting,value
"1-Hydroxy-12-(thiophen-2′-carbonyl)-1,12-dicarba-closo-dodecaborane(12) [Compound R-830-Cb]",cell viability on co-treatment with chloroquine or 3-MA,HCT116 cells [1],suppression of the autophagy process caused a drug-induced decrease in cell viability
same,reactive oxygen species production,HCT116 cells [2],potent inhibition of ROS
